Assay results from patent US20040223963A1, “Method for treating ischemic stroke with melatonin” (priority 2003, published 2004).
Entries after “also recorded” stand apart in the source; their conditions may differ. Like-named read-outs stand apart in the source and are kept apart here.

How the values were obtained:
[1] = system: ischemic stroke; conditions: cited from earlier work
[2] = system: adult Sprague-Dawley rats; test: endovascular middle cerebral artery occlusion (MCAO) stroke models, permanent and 3-hour; assay type: in vivo, rat
Source text: The laboratory observations in support of the disclosed invention include experiments with rats. In experimental studies, the control groups of animal received identical handling plus an intraperitoneal injection of the vehicle alone (i.e. without melatonin).

[3] = system: women; conditions: oral, about 300 mg daily for about 4 months; cited from earlier work
[4] = clinical trials on neuroprotection against ischemic stroke
[5] = second and third doses added at 24 and 48 hours of ischemia

COc1ccc(Cl)cc1[C@]1(F)C(=O)Nc2cc(C(F)(F)F)ccc21 [BMS-204352]
Results (efficacy) [1, 4]: No efficacy

OC(CN1CCC(Cc2ccc(F)cc2)CC1)c1ccc(Cl)cc1 (centres unmarked) [Eliprodil]
Results (efficacy) [1, 4]: No efficacy

COc1ccc2[nH]cc(CCNC(C)=O)c2c1 [melatonin]
efficacy at high dose ([2]; 50 mg/kg): effective
harmful effects ([2]; doses up to about 50 mg/kg): can be administered safely; also recorded: no evidence of producing any harmful effects
reduction of infarct volume ([2]; pre-treatment, single i.p. injection, about 5 to about 15 mg/kg, at about 72 hours, permanent and 3-hour MCAO): about 40%
effect on systemic hemodynamic parameters and regional cerebral blood flow ([2]; pre-treatment, single i.p. injection, about 5 to about 15 mg/kg, permanent and 3-hour MCAO): without affecting
infarct volume with additional doses [2, 5]: tended to achieve increased reduction in infarct volume
treatment time window [2, 5]: failed to extend the treatment time window beyond about 3 hours
efficacy of treatment after onset of ischemia ([2]; single injection about 5 mg/kg commenced at 1 hour or less after onset of ischemia, 3-hour MCAO): effective
effect on ovulation [3]: inhibit ovulation
side effects [3]: without significant side effects

CCc1cccc(N(C)C(N)=Nc2cccc3ccccc23)c1 [Aptiganel]
Results (adverse effects) [1, 4]: Trial stopped, adverse effects

CN(c1nc2ccccc2s1)C1CCN(C[C@H](O)COc2ccc(F)c(F)c2)CC1 [Lubeluzole]
Results (efficacy) [1, 4]: No efficacy

Fc1ccc(C(c2ccc(F)cc2)N2CCN(C/C=C/c3ccccc3)CC2)cc1 [Flunarizine]
Results (efficacy) [1, 4]: No efficacy

bFGF: Neurotrophic factor
Results (adverse effects) ([1]; in vivo): Trial stopped, adverse effects

C=C1CC[C@@]2(O)[C@H]3Cc4ccc(O)c5c4[C@@]2(CCN3CC2CC2)[C@H]1O5 [Nalmefene]
Results (efficacy) [1, 4]: No efficacy

C[C@@H]1C[C@H]2[C@@H]3CCC4=CC(=O)C=C[C@]4(C)C3=CC[C@]2(C)[C@H]1C(=O)CN1CCN(c2cc(N3CCCC3)nc(N3CCCC3)n2)CC1 [Tirilazad]
Results (efficacy) [1, 4]: No efficacy

C[C@]12N[C@H](Cc3ccccc31)c1ccccc12 [Dizolcipine]
Results (adverse effects) [1, 4]: Trial stopped, adverse effects

COC(=O)C1=C(C)NC(C)=C(C(=O)OC(C)C)C1c1cccc2nonc12 (centres unmarked) [Isradipine]
Results (efficacy) [1, 4]: No efficacy

NC(=O)CN1CCCC1=O [Piracetam]
Results (efficacy) [1, 4]: No overall efficacy,

CN1CC[C@@]23CCCC[C@@H]2[C@@H]1Cc1ccc(O)cc13 [Dextrorfan]
Results (adverse effects) [1, 4]: Trial stopped, adverse effects

O=C(/C=C/c1c(C(=O)O)[nH]c2cc(Cl)cc(Cl)c12)Nc1ccccc1 [GV150526]
Results (efficacy) [1, 4]: No efficacy

NS(=O)(=O)c1cccc2c1c([N+](=O)[O-])cc1nc(O)c(O)nc12 [NBQX]
Results (adverse effects) ([1]; in vivo): Trial stopped, adverse effects

O=C1NC(c2ccccc2)(c2ccccc2)C(=O)N1COP(=O)(O)O [Fosphenytoin]
Results (efficacy) [1, 4]: No efficacy

O=C(O)[C@@H]1C[C@H](CP(=O)(O)O)CCN1 (racemic) [Selfotel]
Results (adverse effects) [1, 4]: Trial stopped, adverse effects

CCCn1cnc2c1c(=O)n(CCCCC(C)=O)c(=O)n2C [Propentophylline]
Results (adverse effects) [1, 4]: Trial stopped, adverse effects
